Results: BindingDB's records for doi:10.1124/mol.53.2.195 (Suntory Institute For Bioorganic Research, 1998)

Assays:
[1] = molecular target: Glutamate receptor ionotropic, NMDA 1 (Rattus norvegicus, UniProt P35439)
[2] = molecular target: Glutamate receptor ionotropic, kainate 1 (Rattus norvegicus, UniProt P22756)
[3] = molecular target: Glutamate receptor 3 (Rattus norvegicus, UniProt P19492)
Glutamate receptor 3, sequence (P19492 whole entry): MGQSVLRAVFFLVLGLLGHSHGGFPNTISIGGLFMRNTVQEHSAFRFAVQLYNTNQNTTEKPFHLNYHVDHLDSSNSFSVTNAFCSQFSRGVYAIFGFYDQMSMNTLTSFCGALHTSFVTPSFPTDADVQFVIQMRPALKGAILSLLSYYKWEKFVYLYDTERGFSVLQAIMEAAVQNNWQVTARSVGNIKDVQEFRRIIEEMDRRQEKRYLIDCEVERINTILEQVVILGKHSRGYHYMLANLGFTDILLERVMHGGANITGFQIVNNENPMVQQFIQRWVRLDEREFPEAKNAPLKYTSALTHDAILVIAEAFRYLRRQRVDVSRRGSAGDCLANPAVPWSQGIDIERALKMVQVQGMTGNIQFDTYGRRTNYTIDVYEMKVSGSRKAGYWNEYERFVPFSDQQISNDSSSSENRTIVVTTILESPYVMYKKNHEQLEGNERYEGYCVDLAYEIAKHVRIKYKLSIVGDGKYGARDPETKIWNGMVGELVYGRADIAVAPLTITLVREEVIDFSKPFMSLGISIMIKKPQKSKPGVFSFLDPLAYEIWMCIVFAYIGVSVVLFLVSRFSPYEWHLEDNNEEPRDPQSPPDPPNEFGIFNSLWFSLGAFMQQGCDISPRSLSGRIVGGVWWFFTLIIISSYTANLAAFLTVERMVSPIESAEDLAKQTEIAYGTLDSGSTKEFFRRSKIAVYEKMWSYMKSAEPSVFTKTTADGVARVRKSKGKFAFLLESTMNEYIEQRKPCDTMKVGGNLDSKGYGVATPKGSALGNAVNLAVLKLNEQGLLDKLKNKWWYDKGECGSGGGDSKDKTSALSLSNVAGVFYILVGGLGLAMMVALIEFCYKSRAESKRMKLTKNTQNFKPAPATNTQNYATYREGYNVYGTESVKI

Glutamate receptor ionotropic, kainate 1, sequence (P22756 whole entry): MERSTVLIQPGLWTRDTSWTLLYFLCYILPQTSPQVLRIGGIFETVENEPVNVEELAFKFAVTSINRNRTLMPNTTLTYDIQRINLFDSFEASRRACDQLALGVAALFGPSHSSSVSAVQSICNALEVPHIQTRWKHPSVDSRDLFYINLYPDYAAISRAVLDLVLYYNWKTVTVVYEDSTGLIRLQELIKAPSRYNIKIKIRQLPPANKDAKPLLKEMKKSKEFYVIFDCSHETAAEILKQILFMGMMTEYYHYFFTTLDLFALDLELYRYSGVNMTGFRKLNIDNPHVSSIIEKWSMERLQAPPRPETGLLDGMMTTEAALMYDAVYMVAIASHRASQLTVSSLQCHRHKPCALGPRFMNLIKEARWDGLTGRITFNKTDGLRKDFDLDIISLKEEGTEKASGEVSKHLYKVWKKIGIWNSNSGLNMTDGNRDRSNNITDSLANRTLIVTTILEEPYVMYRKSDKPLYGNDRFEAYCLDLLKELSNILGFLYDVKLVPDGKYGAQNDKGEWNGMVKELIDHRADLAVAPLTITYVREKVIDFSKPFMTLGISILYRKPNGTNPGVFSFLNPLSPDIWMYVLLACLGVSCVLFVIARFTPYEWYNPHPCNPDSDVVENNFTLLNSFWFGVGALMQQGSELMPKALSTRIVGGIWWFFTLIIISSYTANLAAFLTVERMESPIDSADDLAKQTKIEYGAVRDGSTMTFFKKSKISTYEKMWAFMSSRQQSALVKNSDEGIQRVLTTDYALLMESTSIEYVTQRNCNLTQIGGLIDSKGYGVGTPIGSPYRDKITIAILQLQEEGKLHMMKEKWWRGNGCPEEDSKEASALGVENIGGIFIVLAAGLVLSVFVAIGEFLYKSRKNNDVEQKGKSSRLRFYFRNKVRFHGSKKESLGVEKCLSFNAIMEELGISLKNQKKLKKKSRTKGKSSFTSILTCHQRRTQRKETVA

`N[C@H](C(=O)O)[C@H](O)C(=O)O` (racemic) [DL-THA] showed a Ki [1] of over 10 µM, a Ki [2] of over 10 µM and a Ki [3] of over 10 µM.

In the case of `O=C(O)[C@H]1CN[C@H](C(=O)O)C1` [t-PDC], the Ki [1] is reported as over 10 µM, the Ki [2] is reported as over 10 µM and the Ki [3] is reported as over 10 µM.

Work on `N[C@H](C(=O)O)[C@H]1C[C@H]1C(=O)O` [L-CCG-IV] yielded a Ki [1] of 0.008 µM.

`CC(C)[C@H]1CN[C@H](C(=O)O)[C@H]1CC(=O)O` [dihydrokainic acid] showed a Ki [1] of over 10 µM, a Ki [2] of 6 µM and a Ki [3] of over 10 µM.

Compound `N[C@H](C(=O)O)[C@H](OC(=O)c1ccccc1)C(=O)O` (racemic) [DL-TBzOAsp] has a Ki [1] of over 10 µM, a Ki [2] of over 10 µM and a Ki [3] of over 10 µM.

With `CN[C@H](CC(=O)O)C(=O)O` [NMDA] the Ki [1] was 5.5 µM.

Work on `N[C@H](C(=O)O)[C@H](OCc1ccccc1)C(=O)O` [DL-TBOA] yielded a Ki [1] of over 10 µM, a Ki [2] of over 10 µM and a Ki [3] of over 10 µM.
